# According to patent publication US9241491B2, “Aerosol” (SABAN VENTURES PTY LIMITED, priority 2005, dated 2016):
# How the values were obtained:
# Spore strips = settings: atmospheric pressure, below 80° C.; could not be achieved in less; cited from earlier work
# [1] = Maximum peroxide concentration (peroxide density) in gas phase; assay type: physicochemical; settings: for maximum achievable concentration for vapour systems: no evacuation; for Max. peroxide vapour concentration: initial 35% H2O2 solution
compound,measurement,setting,value
"OO [hydrogen peroxide vapour, hydrogen peroxide]",time to sterilization,Spore strips,≥ 6 h
same,maximum achievable concentration for vapour systems,[1]; 0% humidity,2.0 mg/L
same,maximum achievable concentration for vapour systems,"[1]; 25° C., 40% RH",0.9 mg/L
same,Max. peroxide vapour concentration,"[1]; 20 ° C., 10% RH",0.97 mg/L
same,Max. peroxide vapour concentration,"[1]; 20 ° C., 20% RH",0.85 mg/L
same,Max. peroxide vapour concentration,"[1]; 20 ° C., 40% RH",0.62 mg/L
same,Max. peroxide vapour concentration,"[1]; 20 ° C., 80% RH",0.14 mg/L
same,Max. peroxide vapour concentration,"[1]; 40 ° C., 10% RH",4.13 mg/L
same,Max. peroxide vapour concentration,"[1]; 40 ° C., 20% RH",2.59 mg/L
same,Max. peroxide vapour concentration,"[1]; 40 ° C., 40% RH",2.66 mg/L
same,Max. peroxide vapour concentration,"[1]; 40 ° C., 80% RH",0.63 mg/L
same,Max. peroxide vapour concentration,"[1]; 60 ° C., 10% RH",14.4 mg/L
same,Max. peroxide vapour concentration,"[1]; 60 ° C., 20% RH",12.60 mg/L
same,Max. peroxide vapour concentration,"[1]; 60 ° C., 40% RH",9.1 mg/L
same,Max. peroxide vapour concentration,"[1]; 60 ° C., 80% RH",2.31 mg/L
